Data reported in patent US11135234B2, “Effective aminoglycoside antibiotic for multidrug-resistant bacteria” (MICROBIAL CHEMISTRY RESEARCH FOUNDATION, priority 2015, dated 2021).
Values after ≈ are worked out from the molar mass of the structure shown.

Assays:
S. aureus RN4220 = assay: MIC, agar plate dilution method, S. aureus RN4220; assay type: cell-based, Staphylococcus aureus; details: for minimal inhibitory concentration (MIC): S. aureus RN4220, Sensitive bacterium; for MIC: Staphylococcus aureus, RN4220, S. aureus RN4220, Sensitive bacterium, read-out: minimal inhibitory concentration (MIC)
Method in brief: (§1)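 Minimal inhibitory concentration (μg/mL) was determined by agar plate dilution following the Japan Society of Chemotherapy method.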

S. aureus RN4220/pMS520 = assay: MIC, agar plate dilution method, S. aureus RN4220/pMS520; assay type: cell-based, Staphylococcus aureus; details: for minimal inhibitory concentration (MIC): S. aureus RN4220/pMS520, MRSA; for MIC: Staphylococcus aureus, MRSA, read-out: minimal inhibitory concentration (MIC), S. aureus RN4220/pMS520, MRSA
Method in brief: as §1

S. aureus MF490 = assay: MIC, agar plate dilution method, S. aureus MF490; assay type: cell-based, Staphylococcus aureus; details: for minimal inhibitory concentration (MIC): S. aureus MF490, MRSA; for MIC: Staphylococcus aureus, MRSA, read-out: minimal inhibitory concentration (MIC)
Method in brief: as §1

E. faecium ATCC19434 = assay: MIC, agar plate dilution method, E. faecium ATCC19434; assay type: cell-based, Enterococcus faecium; details: for minimal inhibitory concentration (MIC): E. faecium ATCC19434; for MIC: Enterococcus faecium, ATCC19434, E. faecium ATCC19434, read-out: minimal inhibitory concentration (MIC)
Method in brief: as §1

E. coli JM109/pMW218 = assay: MIC, agar plate dilution method, E. coli JM109/pMW218; assay type: cell-based, Escherichia coli; details: for minimal inhibitory concentration (MIC): E. coli JM109/pMW218, Sensitive bacterium; for MIC: Escherichia coli, JM109/PMW218, E. coli JM109/pMW218, Sensitive bacterium, read-out: minimal inhibitory concentration (MIC)
Method in brief: as §1

[1] = test system: K. pneumoniae ATCC BAA-1705; assay: MIC, agar plate dilution method, K. pneumoniae ATCC BAA-1705; assay type: cell-based, Klebsiella pneumoniae; details: for minimal inhibitory concentration (MIC): K. pneumoniae ATCC BAA-1705, KPC-producing strain; for MIC: Klebsiella pneumoniae, ATCCBAA1705, K. pneumoniae ATCC BAA-1705, KPC-producing strain, read-out: minimal inhibitory concentration (MIC)
Method in brief: as §1

[2] = test system: K. pneumoniae ATCC BAA-2146; assay: MIC, agar plate dilution method, K. pneumoniae ATCC BAA-2146; assay type: cell-based, Klebsiella pneumoniae; details: for minimal inhibitory concentration (MIC): K. pneumoniae ATCC BAA-2146, NDM-producing strain; for MIC: Klebsiella pneumoniae, ATCCBAA2146, K. pneumoniae ATCC BAA-2146, NDM-producing strain, read-out: minimal inhibitory concentration (MIC)
Method in brief: as §1

[3] = test system: A. baumannii ATCC BAA-1710; assay: MIC, agar plate dilution method, A. baumannii ATCC BAA-1710; assay type: cell-based, Acinetobacter baumannii; details: for minimal inhibitory concentration (MIC): A. baumannii ATCC BAA-1710, MDRA; for MIC: Acinetobacter baumannii, ATCCBAA1710, A. baumannii ATCC BAA-1710, MDRA, read-out: minimal inhibitory concentration (MIC)
Method in brief: as §1

S. marcescens TH-0447 = assay: MIC, agar plate dilution method, S. marcescens TH-0447; assay type: cell-based, Serratia marcescens; details: for minimal inhibitory concentration (MIC): S. marcescens TH-0447, AMK-resistant; for MIC: Serratia marcescens, TH0447, S. marcescens TH-0447, AMK-resistant, read-out: minimal inhibitory concentration (MIC)
Method in brief: as §1

S. marcescens GN6944 = assay: MIC, agar plate dilution method, S. marcescens GN6944; assay type: cell-based, Serratia marcescens; details: S. marcescens GN6944, GM-resistant; for MIC: Serratia marcescens, read-out: minimal inhibitory concentration (MIC)
Method in brief: as §1

P. aeruginosa PAO1 = assay: MIC, agar plate dilution method, P. aeruginosa PAO1; assay type: cell-based, Pseudomonas aeruginosa; details: for minimal inhibitory concentration (MIC): P. aeruginosa PAO1, Sensitive bacterium; for MIC: Pseudomonas aeruginosa, PAO1, P. aeruginosa PAO1, Sensitive bacterium, read-out: minimal inhibitory concentration (MIC)
Method in brief: as §1

P. aeruginosa PAO1/GN315 = assay: MIC, agar plate dilution method, P. aeruginosa PAO1/GN315; assay type: cell-based, Pseudomonas aeruginosa; details: for minimal inhibitory concentration (MIC): P. aeruginosa PAO1/GN315, AMK-resistant; for MIC: Pseudomonas aeruginosa, read-out: minimal inhibitory concentration (MIC), P. aeruginosa PAO1/GN315, AMK-resistant
Method in brief: as §1

P. aeruginosa MSC17707 = assay: MIC, agar plate dilution method, P. aeruginosa MSC17707; assay type: cell-based, Pseudomonas aeruginosa; details: for minimal inhibitory concentration (MIC): P. aeruginosa MSC17707, AMK-resistant; for MIC: Pseudomonas aeruginosa, MSC17707, P. aeruginosa MSC17707, AMK-resistant, read-out: minimal inhibitory concentration (MIC)
Method in brief: as §1

P. aeruginosa MSC01035 = assay: MIC, agar plate dilution method, P. aeruginosa MSC01035; assay type: cell-based, Pseudomonas aeruginosa; details: P. aeruginosa MSC01035, ABK-resistant; for MIC: Pseudomonas aeruginosa, read-out: minimal inhibitory concentration (MIC)
Method in brief: as §1

For `CNCC(=O)N[C@@H]1C(CO)O[C@H](OC2O[C@H]3CC(N)[C@@H](O[C@@H]4C(N)C[C@@H](N)C(O)[C@H]4O)OC3C(O)C2NC)C(O)[C@H]1O` (stereo partly drawn) [Compound V1-j, 5-epi-4″-N-sarcosylapramycin], the “minimal inhibitory concentration (MIC)” value (S. aureus RN4220) was 2 µg/mL (≈ 3.28 µM), the “minimal inhibitory concentration (MIC)” value (S. aureus RN4220/pMS520) was 2 µg/mL (≈ 3.28 µM) and the “minimal inhibitory concentration (MIC)” value (S. aureus MF490) was 4 µg/mL (≈ 6.55 µM). The “minimal inhibitory concentration (MIC)” value (E. faecium ATCC19434) was 8 µg/mL (≈ 13.1 µM), the “minimal inhibitory concentration (MIC)” value (E. coli JM109/pMW218) was 1 µg/mL (≈ 1.64 µM) and the “minimal inhibitory concentration (MIC)” value [1] was 1 µg/mL (≈ 1.64 µM). The “minimal inhibitory concentration (MIC)” value [2] was 1 µg/mL (≈ 1.64 µM), the “minimal inhibitory concentration (MIC)” value [3] was 8 µg/mL (≈ 13.1 µM) and the “minimal inhibitory concentration (MIC)” value (S. marcescens TH-0447) was 8 µg/mL (≈ 13.1 µM). For the same compound, the “minimal inhibitory concentration (MIC)” value (S. marcescens GN6944) was 8 µg/mL (≈ 13.1 µM), the “minimal inhibitory concentration (MIC)” value (P. aeruginosa PAO1) was 2 µg/mL (≈ 3.28 µM) and the “minimal inhibitory concentration (MIC)” value (P. aeruginosa PAO1/GN315) was 4 µg/mL (≈ 6.55 µM). The “minimal inhibitory concentration (MIC)” value (P. aeruginosa MSC17707) was 2 µg/mL (≈ 3.28 µM) and the “minimal inhibitory concentration (MIC)” value (P. aeruginosa MSC01035) was 4 µg/mL (≈ 6.55 µM).
With `CNC1C(O[C@H]2OC(CO)[C@@H](NC(=O)[C@H](C)N)[C@H](O)C2O)O[C@H]2CC(N)[C@@H](O[C@@H]3C(N)C[C@@H](N)C(O)[C@H]3O)OC2C1O` (stereo partly drawn) [Compound V1-k, 4″-N-(L-alanyl)-5-epiapramycin] the MIC (S. aureus RN4220) was 4 µg/mL (≈ 6.55 µM), the MIC (S. aureus RN4220/pMS520) was 4 µg/mL (≈ 6.55 µM) and the MIC (S. aureus MF490) was 8 µg/mL (≈ 13.1 µM). The MIC (E. faecium ATCC19434) was 16 µg/mL (≈ 26.2 µM), the MIC (E. coli JM109/pMW218) was 1 µg/mL (≈ 1.64 µM) and the “minimal inhibitory concentration (MIC)” value [1] was 1 µg/mL (≈ 1.64 µM). For the same compound, the MIC [2] was 1 µg/mL (≈ 1.64 µM), the MIC [3] was 8 µg/mL (≈ 13.1 µM) and the MIC (S. marcescens TH-0447) was 16 µg/mL (≈ 26.2 µM). The MIC (S. marcescens GN6944) was 8 µg/mL (≈ 13.1 µM), the “minimal inhibitory concentration (MIC)” value (P. aeruginosa PAO1) was 4 µg/mL (≈ 6.55 µM) and the MIC (P. aeruginosa PAO1/GN315) was 4 µg/mL (≈ 6.55 µM). It also gave an MIC (P. aeruginosa MSC17707) of 4 µg/mL (≈ 6.55 µM) and an MIC (P. aeruginosa MSC01035) of 8 µg/mL (≈ 13.1 µM).
With `CNC1C(OC2OC(CO)C(NC(=O)C(N)CO)C(O)C2O)OC2CC(N)C(OC3C(N)CC(N)C(O)C3O)OC2C1O` [Compound V1-l, 5-epi-4″-N-(L-seryl)apramycin] the “minimal inhibitory concentration (MIC)” value (S. aureus RN4220) was 4 µg/mL (≈ 6.38 µM), the “minimal inhibitory concentration (MIC)” value (S. aureus RN4220/pMS520) was 4 µg/mL (≈ 6.38 µM) and the “minimal inhibitory concentration (MIC)” value (S. aureus MF490) was 8 µg/mL (≈ 12.8 µM). For the same compound, the “minimal inhibitory concentration (MIC)” value (E. faecium ATCC19434) was 32 µg/mL (≈ 51.1 µM), the “minimal inhibitory concentration (MIC)” value (E. coli JM109/pMW218) was 1 µg/mL (≈ 1.6 µM) and the “minimal inhibitory concentration (MIC)” value [1] was 1 µg/mL (≈ 1.6 µM). For the same compound, the “minimal inhibitory concentration (MIC)” value [2] was 1 µg/mL (≈ 1.6 µM), the “minimal inhibitory concentration (MIC)” value [3] was 8 µg/mL (≈ 12.8 µM) and the “minimal inhibitory concentration (MIC)” value (S. marcescens TH-0447) was 8 µg/mL (≈ 12.8 µM). For the same compound, the “minimal inhibitory concentration (MIC)” value (S. marcescens GN6944) was 8 µg/mL (≈ 12.8 µM), the “minimal inhibitory concentration (MIC)” value (P. aeruginosa PAO1) was 4 µg/mL (≈ 6.38 µM) and the “minimal inhibitory concentration (MIC)” value (P. aeruginosa PAO1/GN315) was 4 µg/mL (≈ 6.38 µM). The “minimal inhibitory concentration (MIC)” value (P. aeruginosa MSC17707) was 4 µg/mL (≈ 6.38 µM) and the “minimal inhibitory concentration (MIC)” value (P. aeruginosa MSC01035) was 8 µg/mL (≈ 12.8 µM).
`CNC1C(O[C@H]2OC(CO)[C@@H](NC(=O)CCN)[C@H](O)C2O)O[C@H]2C[C@H](N)[C@@H](O[C@@H]3C(N)C[C@@H](N)C(O)[C@H]3O)OC2C1O` (stereo partly drawn) [Compound V1-m, 4″-N-(β-alanyl)-5-epiapramycin] was tested, and the MIC (S. aureus RN4220) was 2 µg/mL (≈ 3.28 µM), the MIC (S. aureus RN4220/pMS520) was 2 µg/mL (≈ 3.28 µM) and the MIC (S. aureus MF490) was 8 µg/mL (≈ 13.1 µM). It also gave an MIC (E. faecium ATCC19434) of 16 µg/mL (≈ 26.2 µM), an MIC (E. coli JM109/pMW218) of 1 µg/mL (≈ 1.64 µM) and an MIC [1] of 1 µg/mL (≈ 1.64 µM). It also gave an MIC [2] of 1 µg/mL (≈ 1.64 µM), an MIC [3] of 8 µg/mL (≈ 13.1 µM) and an MIC (S. marcescens TH-0447) of 8 µg/mL (≈ 13.1 µM). It also gave an MIC (S. marcescens GN6944) of 8 µg/mL (≈ 13.1 µM), an MIC (P. aeruginosa PAO1) of 2 µg/mL (≈ 3.28 µM) and an MIC (P. aeruginosa PAO1/GN315) of 4 µg/mL (≈ 6.55 µM). It also gave an MIC (P. aeruginosa MSC17707) of 2 µg/mL (≈ 3.28 µM) and an MIC (P. aeruginosa MSC01035) of 4 µg/mL (≈ 6.55 µM).
In the case of `CNC1C(O[C@H]2OC(CO)[C@@H](NC(=O)[C@@H](O)CN)[C@H](O)C2O)O[C@H]2C[C@H](N)[C@@H](O[C@@H]3C(N)C[C@@H](N)C(O)[C@H]3O)OC2C1O` (stereo partly drawn) [Compound V1-n, 5-epi-4″-N-(L-isoseryl)apramycin], the MIC (S. aureus RN4220) is reported as 2 µg/mL (≈ 3.19 µM), the MIC (S. aureus RN4220/pMS520) is reported as 2 µg/mL (≈ 3.19 µM) and the MIC (S. aureus MF490) is reported as 8 µg/mL (≈ 12.8 µM). For the same compound, the MIC (E. faecium ATCC19434) was 16 µg/mL (≈ 25.5 µM), the MIC (E. coli JM109/pMW218) was 0.5 µg/mL (≈ 0.798 µM) and the MIC [1] was 1 µg/mL (≈ 1.6 µM). It also gave an MIC [2] of 1 µg/mL (≈ 1.6 µM), an MIC [3] of 8 µg/mL (≈ 12.8 µM) and an MIC (S. marcescens TH-0447) of 8 µg/mL (≈ 12.8 µM). For the same compound, the MIC (S. marcescens GN6944) was 8 µg/mL (≈ 12.8 µM), the MIC (P. aeruginosa PAO1) was 2 µg/mL (≈ 3.19 µM) and the MIC (P. aeruginosa PAO1/GN315) was 4 µg/mL (≈ 6.38 µM). The MIC (P. aeruginosa MSC17707) was 2 µg/mL (≈ 3.19 µM) and the MIC (P. aeruginosa MSC01035) was 4 µg/mL (≈ 6.38 µM).
